Results taken from ChEMBL document CHEMBL2396569, “6'-Methyl-5'-homoaristeromycin: a structural variation of the anti-orthopox virus candidate 5'-homoaristeromycin” (Bioorg Med Chem, 2013).
Active and inactive are the calls of the source. The calls are words filed in the database; no cut-off is given here.

What was measured:
[1] = test system: Feline coronavirus; assay: Antiviral activity against Feline coronavirus; format: functional, organism-based
[2] = test system: Human betaherpesvirus 5; assay: Antiviral activity against Human cytomegalovirus; format: functional, organism-based
[3] = test system: Cowpox virus; assay: Antiviral activity against Cowpox virus infected in african green monkey Vero 76 cells assessed as inhibition of virus-induced cytopathic effect after 3 days by microscopic analysis; format: functional, organism-based; conditions: 72 h
[4] = test system: unidentified human coronavirus; assay: Antiviral activity against Human coronavirus; format: functional
[5] = test system: Influenza A virus; assay: Antiviral activity against Influenza A virus H1N1; format: functional, organism-based
[6] = test system: Vaccinia virus; assay: Antiviral activity against Vaccinia virus infected in african green monkey Vero 76 cells assessed as inhibition of virus-induced cytopathic effect after 3 days by microscopic analysis; format: functional, organism-based; conditions: Orthopoxvirus vaccinia, 72 h
[7] = test system: Influenza A virus; assay: Antiviral activity against Influenza A virus H3N2; format: functional, organism-based
[8] = test system: Pichinde virus; assay: Antiviral activity against Pichinde virus; format: functional, organism-based
[9] = test system: Hepatitis C virus; assay: Antiviral activity against Hepatitis C virus; format: functional, organism-based; conditions: Hepacivirus hominis
[10] = test system: Influenza B virus; assay: Antiviral activity against Influenza B virus; format: functional, organism-based
[11] = test system: Punta Toro virus; assay: Antiviral activity against Punta Toro virus; format: functional, organism-based
[12] = test system: Sindbis virus; assay: Antiviral activity against Sindbis virus; format: functional, organism-based
[13] = test system: Measles morbillivirus; assay: Antiviral activity against Measles virus; format: functional, organism-based
[14] = test system: Enterovirus; assay: Antiviral activity against Rhinovirus; format: functional, organism-based
[15] = test system: Human alphaherpesvirus 2; assay: Antiviral activity against Herpes simplex virus 2; format: functional, organism-based
[16] = test system: unidentified adenovirus; assay: Antiviral activity against Adenovirus; format: functional, organism-based
[17] = test system: Human respirovirus 3; assay: Antiviral activity against Human parainfluenza virus 3; format: functional, organism-based
[18] = test system: Hepatitis B virus; assay: Antiviral activity against Hepatitis B virus; format: functional, organism-based
[19] = test system: Dengue virus; assay: Antiviral activity against Dengue virus; format: functional, organism-based
[20] = test system: Coxsackievirus B4; assay: Antiviral activity against Human coxsackievirus B4; format: functional, organism-based
[21] = test system: Reovirus sp.; assay: Antiviral activity against Reovirus; format: functional, organism-based
[22] = Cytotoxicity against human HEL cells after 3 days by neutral red uptake assay; format: cell-based
[23] = test system: West Nile virus; assay: Antiviral activity against West Nile virus; format: functional, organism-based
[24] = test system: Vesicular stomatitis virus; assay: Antiviral activity against Vesicular stomatitis virus infected in human HEL cells assessed as inhibition of virus-induced cytopathic effect after 3 days by microscopic analysis; format: functional, organism-based; conditions: 72 h
[25] = test system: Human alphaherpesvirus 3; assay: Antiviral activity against Varicella zoster virus; format: functional, organism-based
[26] = Cytotoxicity against human Daudi cells after 3 days by neutral red uptake assay; format: cell-based
[27] = test system: Yellow fever virus; assay: Antiviral activity against Yellow fever virus; format: functional, organism-based
[28] = test system: Human alphaherpesvirus 1; assay: Antiviral activity against Herpes simplex virus 1; format: functional, organism-based
[29] = Cytotoxicity against african green monkey Vero 76 cells after 3 days by neutral red uptake assay; format: cell-based; conditions: chlorocebus sabaeus
[30] = test system: Respiratory syncytial virus; assay: Antiviral activity against Respiratory syncytial virus; format: functional, organism-based
[31] = test system: Venezuelan equine encephalitis virus; assay: Antiviral activity against Venezuelan equine encephalitis virus; format: functional, organism-based
[32] = test system: Human gammaherpesvirus 4; assay: Antiviral activity against Epstein Barr virus infected in human Daudi cells assessed as inhibition of virus-induced cytopathic effect after 3 days by microscopic analysis; format: functional, organism-based; conditions: human gammaherpesvirus 4, Daudi, 72 h

Row | Structure (SMILES) | Activity [1] | Activity [2] | IC50 [3] [µM] | Activity [4] | Activity [5] | IC50 [6] [µM] | Activity [7] | Activity [8] | Activity [9] | Activity [10] | Activity [11] | Activity [12] | Activity [13] | Activity [14] | Activity [15] | Activity [16] | Activity [17] | Activity [18] | Activity [19] | CC50 at 72 h [29] [µM] | also measured
1 | C[C@@H](O)C[C@H]1C[C@@H](n2cnc3c(N)ncnc32)[C@H](O)[C@@H]1O (mixture of isomers) | inactive | inactive | 223 | inactive | inactive | 24 | inactive | inactive | inactive | inactive | inactive | inactive | inactive | inactive | inactive | inactive | inactive | inactive | inactive | > 300 | Activity [20]: inactive; Activity [21]: inactive; CC50 at 72 h [22]: > 300 µM; Activity [23]: inactive; IC50 [24]: 4.8 µM; Activity [25]: inactive; CC50 at 72 h [26]: > 300 µM; Activity [27]: inactive; Activity [28]: inactive; Activity [30]: inactive; Activity [31]: inactive; IC50 [32]: 6.6 µM
2 | C[C@H](O)C[C@H]1C[C@@H](n2cnc3c(N)ncnc32)[C@H](O)[C@@H]1O (mixture of isomers) | inactive | inactive | 164 | inactive | inactive | 4.8 | inactive | inactive | inactive | inactive | inactive | inactive | inactive | inactive | inactive | inactive | inactive | inactive | inactive | > 300 | Activity [20]: inactive; Activity [21]: inactive; CC50 at 72 h [22]: > 300 µM; Activity [23]: inactive; IC50 [24]: 1.6 µM; Activity [25]: inactive; CC50 at 72 h [26]: > 300 µM; Activity [27]: inactive; Activity [28]: inactive; Activity [30]: inactive; Activity [31]: inactive; IC50 [32]: 6.4 µM
3 | Nc1ncnc2c1ncn2[C@@H]1C[C@H](CCO)[C@@H](O)[C@H]1O | – | – | 0.49 | – | – | 4.29 | – | – | – | – | – | – | – | – | – | – | – | – | – | > 300 | –
